The structures appear in SMILES notation. Peptide text beside a SMILES is read from it.

Results on five compounds are retold here after paper PMC12876990, “Targeting secreted PLA2 interactions with EGFR and vimentin to arrest prostate tumour growth” (Cell Death & Disease, 2025).

Data set [1] deals with T1, hGIIA/vimentin interaction (Homo sapiens, UniProt P08670).
T1 construct: Purified vimentin fragments (full length or coil 2) were seeded to a 96-well microplate at 15 μg/mL; hGIIA purified in house from conditioned medium of CHO cell line 2B1
In words: Enzyme immunoassay of hGIIA binding to vimentin coil 2. To be noted: 0.1-100 µM. The method, then:
Prior to assay, hGIIA antibody 4A1 was conjugated to alkaline phosphatase (4A1-AP), produced using the lightning-link conjugation kit (ab102850, Abcam) as per the manufacturer’s instructions.
Purified vimentin fragments (full length or coil 2) were seeded to a 96-well microplate at 15 μg/mL with a 100 μL/well volume. After an overnight incubation at 4 °C, the plate was emptied. Each well was then blocked overnight at 4 °C with 200 μL of 1% BSA in PBS. The plate was emptied and washed with PBST (PBS + 0.05% Tween20). hGIIA solution of 100 ng/mL in PBS with 0.1% BSA was prepared with and without inhibitors c2, Withaferin A and LY311727 in DMSO with concentrations 0.1-100 µM. hGIIA working solution with 0.4% DMSO served as a positive control and PBS with 0.1% BSA served as a negative control. A 100 μL volume of each prepared hGIIA-inhibitor mixture was added to wells in triplicate and incubated at 37 °C for two hours. The plate was washed twice with PBST, then incubated with the 4A1-AP conjugate at 1 μg/mL 0.1% BSA in PBS and incubated for one hour at 37 °C. Plates were then emptied and washed three times with PBST, followed by washing twice with carbonate buffer (8 mM Na2CO3, 36 mM NaHCO3, 2 mM MgCl2, pH 9.8), before incubation with AP substrate p-nitro-phenyl phosphate (PNPP) powder at 1 mg/mL concentration in carbonate buffer. The plate was incubated at 37 °C for 60 mins then absorbance was read at 405 nm by a Spectramax M2 plate reader. All washes were a 200 µL/well volume.

A short description of data set [2]: Pharmacokinetics of tritiated cF and c2 in BALB/c mice. Format: in vivo. As for the experimental part:
All animal studies were performed according to the guidelines for the ethical use of animals published by the National Health and Medical Research Council of Australia. Mouse pharmacokinetic studies were conducted with approval from the Garvan Institute Animal Ethics Committee (approval #02/21). cF and c2 were radioactively labelled with tritium by catalytic saturation of peptide analogues containing dehydroleucine (Sibtech Inc.), yielding high specific activity (50–60 Ci/mmol) peptides. Their identity was confirmed by three separate analytical methods prior to delivery. Mice (BALB/c, n = 4 per timepoint) were administered a single dose of peptide by the routes and times indicated. Animals were then exsanguinated by cardiac puncture under halothane anaesthesia followed by cervical dislocation. Tissues and plasma were stored at −80 °C prior to analysis. For plasma, a known volume of plasma was added to liquid scintillant (Ultima Gold, Perkin Elmer). For tissues, a known amount of tissue (50–100 mg) was incubated in NaOH (1 mL, 1 M) overnight at room temperature. The solutions were then bleached with disodium EDTA (100 µl, 0.1%) and hydrogen peroxide (300 µl, 30%) and incubated at 50 °C for one hour. The peptide content of plasma and tissues was determined by liquid scintillation counting. The stability of the peptides following administration to animals was evaluated by thin-layer chromatography of tissue-extracted peptide relative to peptide prior to injection (Fig. S2c).

The subject of data set [3] is LNCaP-luc xenograft tumours in castrated mice. Put plainly: Castrate-resistant model of PCa. Type of data set: in vivo, BALB/c nu/nu mice. To be noted: cF 2 mg/kg po daily; p = 0.0419. From the text: Mice (BALB/c nu/nu) carrying LNCaP-luc xenograft tumours ( > 65.5 mm^3) were surgically castrated 2.0 - 6.6 weeks post-tumour establishment. Treatment was commenced five weeks post-castration and the study terminated 10 weeks post-treatment commencement.

The test system of data set [4] is fibroblast-like synoviocytes derived from patients with rheumatoid arthritis. Conditions: cited from earlier work.
A short description of data set [5]: Toxicity and serum enzyme levels in PCa xenograft model mice. Format: in vivo. The method, then:
Fig. 1 Derived from the structure of hGIIA, cF and c2 are orally absorbed, cell permeable and non-toxic. a Structure of hGIIA showing disulphide bonds (yellow) and the location of the peptide sequence ^70FLSYK^74 (cyan), which was cyclised to produce pentapeptide cF, then modified to produce c2. b Plasma concentrations of tritiated cF (red) and c2 (blue) following subcutaneous (sc) administration (circles) or oral (po) administration (squares) at 5 mg/kg to BALB/c mice (mean ± SE, n = 4 per time point). Tissue concentrations of c cF and d c2 following sc administration determined in the liver (blue) and kidney (brown) (mean ± SE). Dashed lines indicate estimated background levels of tritium in tissues due to tissue blood content (10% of peak plasma concentration). e–i Following po administration of c2 at 100 mg/kg to male rats (n = 5 per group), levels of c2 were measured in e plasma, f kidney, g faeces, h urine and i liver at timepoints indicated via LCMS/MS (mean ± SE). j Serum enzyme levels of markers of kidney function (creatinine), liver damage (AST and ALT) and heart damage (CK) in PCa xenograft model mice in response to treatment with vehicle (po, 3 x weekly for 6.1 ± 1.6 weeks), cF (10 mg/kg, po, 3 x weekly for 5.4 ± 0.9 weeks) or c2 (10 mg/kg, po, 3 x weekly for 4.8 ± 0.8 weeks) (n = 4, mean ± SE). Data were obtained by the South Eastern Area Laboratory Services Pathology Laboratory at Prince of Wales Hospital, Randwick, Australia. k PCa cell lines LNCaP, PC-3, and DU145 cells incubated with 100 µM c2 (green) for 24 hours with DAPI (blue), scale bar 10 µm (representative cells of n = 3 biological replicates, 5 cells per replicate).
A key failing of previous enzymatic inhibitors of hGIIA was toxicity, resulting in increased incidence of myocardial infarction in a phase III clinical trial. Thus, the toxicity profile of novel hGIIA inhibitors is critically important in evaluating new inhibitors. […] Extensive histopathology was performed on all animals in the control and high dose groups sacrificed on day 29, with no difference observed between the treated groups and the vehicle control group by any measure. […] In light of the toxicity associated with the myocardial infarction study, data from this c2 toxicity study relevant to heart toxicity are shown in Table 1. Heart wet weight was not affected by either low or high dose relative to vehicle, indicating the compound has no significant pro-hypertrophy effect at these doses. The lack of effect of c2 on gross necropsy or histopathology scores also supports the preclinical safety of the compound in the heart. Importantly, c2 has no effect on serum potassium levels or the Na/K ratio, since hypokalemia (low potassium) is highly arrythmogenic. […] It is of interest also that serum alanine transaminase is unaffected by c2 at the doses tested, since this marker was raised three-fold over the normal range in 6.3-fold more patients on varespladib than placebo in the VISTA acute coronary syndrome trial of this sPLA2 inhibitor [13].

The test system of data set [6] is PC-3M-luc xenograft tumours. Put plainly: Androgen-receptor independent xenograft model. Type of data set: in vivo, BALB/c nu/nu mice. The method, then: Mice (BALB/c nu/nu) carrying luciferase-tagged PC-3M cells (PC-3M-luc) were each injected sc with 1 × 10^6 cells suspended in RPMI culture medium. […] Tumour volume and animal weights were measured twice weekly.
(§1) Tumours were fixed with 10% neutral buffered formalin and stored in 70% ethanol, then paraffin-embedded and cut into 5 µm consecutive sections. Samples were deparaffinised with xylene and […] with ethanol using standard protocols, with antigens retrieved by incubating samples in citrate buffer (pH 6) at 95 °C for 20 min. Samples were then incubated with 3% H2O2 in methanol for 30 min to remove endogenous peroxidases, then blocked with 10% goat serum in PBS for 30 min. Samples were then incubated overnight at 4 °C with a range of antibodies: Ki67 (Abcam, ab15580, 1:100), vimentin (1:333), CD31 (Abcam, ab28364, 1:50) and hGIIA (1:100) (Cayman Chemical, Ann Arbour, MI). TUNEL assay (Abcam) was also used to identify apoptosis. Samples were then washed, stained with Rabbit IHC secondary antibody (1:100) (Dako, Glostrup, Denmark) and counterstained with Gill's haematoxylin (1:5) (Dako). Samples were imaged using an M8 digital microscope (PreciPoint GmbH, Freising, Germany) and DAB staining was scored in a blind manner using ImageJ as described previously.

Data set [7] has as its system LNCaP-luc xenograft tumours. In words: Androgen-sensitive xenograft model. Conditions: cF 2 mg/kg po daily. Type of data set: in vivo, BALB/c nu/nu mice. The method, then: BALB/c nu/nu mice (which express murine hGIIA) (n = 13 per group) were injected subcutaneously with 1 × 10^6 luciferase-tagged LNCaP cells (LNCaP-luc) in RPMI 5% FBS/Matrigel (1:1). Subcutaneous tumours (> 65.5 mm^3), in mice randomised to […], were treated by gavage with either vehicle (saline, 1% dimethylformamide (DMF), po, daily) cF (2 mg/kg po, daily) or c2 (0.1 mg/kg, thrice weekly). Mouse weight and tumour diameter, ((d1) and at 90 degrees to d1 (d2) measured with calipers) were recorded twice weekly. Diameter measurements were used to calculate tumour volume; Vol. = π/6 (d1.d2)^3/2, with treatments blinded to experimentalists. Animals were treated for 8-10 weeks unless culled due to tumour volume reaching 15 x 15 mm (1768 mm^3). End of study plasma PSA levels were measured by ELISA. Bioluminescence images were obtained weekly using the IVIS® Lumina (Perkin-Elmer). D-Luciferin, Firefly, potassium salt (150 mg/kg), (Gold Biotechnology Inc.) substrate was administered intraperitoneally prior to imaging. Images were acquired after 10 min with an image time of 60 s, medium binning, F/Stop=1. Images were quantified using the Living Image software (Perkin-Elmer).
as §1

The subject of a further data set is hGIIA. To be noted: cited from earlier work.
For another data set, the system named is castrate-resistant PCa. Also on record: method as in PMID 15470213. Conditions: cited from earlier work.
The conditions of data set [8]: cited from earlier work.

T1 sequence (P08670 269-407 limits assumed): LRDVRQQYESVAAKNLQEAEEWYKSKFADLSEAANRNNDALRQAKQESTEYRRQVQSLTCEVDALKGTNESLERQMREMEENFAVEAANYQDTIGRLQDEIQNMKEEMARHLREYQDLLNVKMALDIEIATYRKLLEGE

Consider `CCc1c(CC(N)=O)c2cc(OCCCP(=O)(O)O)ccc2n1Cc1ccccc1` [LY311727], for which the “inhibition of the hGIIA/vimentin interaction” value in [1] is on record as “did not inhibit”.

Take `CC(C)C[C@@H]1NC(=O)[C@H](Cc2ccccc2)NC(=O)[C@H](CCCNC(=N)N)NC(=O)[C@H](Cc2ccc(O)cc2)NC(=O)[C@H](CO)NC1=O` [cF, cyclo-(Phe-Leu Ser-Tyr-Arg)] (cyclo(FLSYR)): the “liver and kidney concentrations relative to c2” value in [2] (5 mg/kg) is listed as ~ 10 fold. The “plasma concentration relative to c2” value in data set [2] (5 mg/kg, sc or po) is on record as ~ 10 fold. In addition, the “oral bioavailability (in words)” value in data set [2] (sc and po administration) is reported as “orally bioavailable”. Moreover, the “oral bioavailability relative to sc delivery (AUC analysis)” value in [2] (tritiated peptide 5 mg/kg, po vs sc, at 16 hours) is ~20%. Also, in [3], the “relative tumour volume from time 0 at 10 weeks” value was “significantly reduced”. The “synthesis of exogenous hGIIA-mediated prostaglandin (PG)” value in [4] is reported as “suppress”. Moreover, the “serum creatinine, aspartate aminotransferase, alanine aminotransferase, creatine kinase levels” value in data set [5] (10 mg/kg po thrice weekly) is “no significant changes”. The damage to organs result in [5] (10 mg/kg thrice weekly for 10 weeks) is recorded as “no observable damage to organs”. The gross toxicity result in [5] (max dosages of 10 mg/kg thrice weekly for 10 weeks) is “No gross toxicity”. In [6] (cF), the “increase of TUNEL signal” value is listed as “not seen” and the “proliferative marker Ki67 relative to control” value is given as “significant increase”. In addition, the “growth of tumours relative to vehicle controls” value in [6] (cF 5 mg/kg daily po, p < 0.05) is on record as “significantly slowed the growth of tumours”. Moreover, the “animals surviving until study termination at 6 months” value in data set [6] (cF daily) amounted to 13%. For the same compound, in data set [7] (ten weeks, p = 0.0229), the tumour volume result is recorded as “significant suppression”. The PSA levels entry in data set [7] (p = 0.0158) is on record as “significantly reduced”. The tumour weight entry in [7] (p = 0.0235) is on record as “significant suppression”. Also, in data set [7] (p = 0.0284), the luciferase signal result was “reduced”. For the same compound, the “potency in the inhibition of hGIIA catalytic activity, less than other hGIIA inhibitors” value in the data set with hGIIA was ~ 1000 fold.

In the case of `CC(=O)O[C@@]12CO[C@@H]1C[C@H](O)[C@@]1(C)C(=O)[C@H](O)C3=C(C)[C@@H](OC(=O)[C@H](O)[C@@H](NC(=O)OC(C)(C)C)c4ccccc4)C[C@@](O)([C@@H](OC(=O)c4ccccc4)[C@H]21)C3(C)C` [docetaxel], in the data set on castrate-resistant PCa, the tumour response was 12%.

Consider `CCc1c(C(=O)C(N)=O)c2c(OCC(=O)O)cccc2n1Cc1ccccc1` [varespladib], for which the “patients with ALT raised three-fold over the normal range, varespladib vs placebo” value in data set [8] is 6.3 fold.

Consider `CC1=C(CO)C(=O)O[C@@H]([C@@H](C)[C@H]2CC[C@H]3[C@@H]4C[C@H]5O[C@]56[C@@H](O)C=CC(=O)[C@]6(C)[C@H]4CC[C@]23C)C1` [withaferin A], for which the “inhibition of the hGIIA/vimentin interaction” value in [1] was “did not inhibit”.
